From patent US20210180095A1 (SHELL OIL COMPANY, priority 2017, published 2021)
Each block holds one molecule with its values, some of them ahead of it.

Assays:
[1] = target: T1, P. thermopropionicum HmfF (Pelotomaculum thermopropionicum, UniProt A5D4Z9); conditions: substrate specificity
Procedure: Subsequently, HmfF was purified and assayed under anaerobic conditions. […] All subsequent assays were performed at 50° C.

[2] = tested on: P. thermopropionicum HmfF wild-type (WT); test: Reconstituted holo-PtHmfF decarboxylation assay (FIG. 7), wild-type; type: biochemical, Pelotomaculum thermopropionicum; conditions: 1 mM substrate; for observed kcat (decarboxylation activity): pH6, 50° C., anaerobic
Procedure: Reconstitution and Assays were performed anaerobically within a 100% N2-atmosphere glove box (Belle Technology, UK).
Holo-PtHmfF (e.g., an enzyme with its cofactors) was obtained by reconstituting single expressed HmfF with reduced prFMN under anaerobic conditions as described previously for the UbiD from E. coli in Marshall, S. A., Fisher, K., Ni Cheallaigh, A., White, M. D., Payne, K. A., Parker, D. A., Rigby, S. E., and Leys, D. (2017) Oxidative Maturation and Structural Characterization of Prenylated FMN Binding by UbiD, a Decarboxylase Involved in Bacterial Ubiquinone Biosynthesis. The Journal of biological chemistry 292, 4623-4637. In general, a reaction consisting of 1 mM FMN, 2 mM DMAP (Sigma), 50 μM Fre reductase and 50 μM UbiX in buffer A was started by the addition of 5 mM NADH. Following incubation, the reaction mixture was filtered through 10 k MWCO centrifugal concentrator to remove UbiX and Fre proteins. The filtrate containing the prFMN product was used to reconstitute anaerobic apo-HmfF (e.g., an enzyme without its cofactors) in a 2:1 molar ratio, with excess cofactor being removed using a PD25 desalting column (GE Healthcare). Use of holo-PtHmfF ensures the activity observed in the enzymatic activity assay below is minimally impacted by the presence or absence of cofactors.
Assays were performed by UV-vis spectroscopy using a Cary 50 Bio spectrophotometer (Varian).

[3] = tested on: P. thermopropionicum HmfF H297F variant; test: Reconstituted holo-PtHmfF decarboxylation assay (FIG. 7), H297F variant; type: biochemical, Pelotomaculum thermopropionicum; conditions: 1 mM substrate
Procedure: (§1) Mutagenesis primers were designed using the QuikChange® Primer Design Program (http://www.genomics.agilent.com/primerDesignProgram.jsp). PCR was performed using Phusion polymerase (NEB). Template was removed by DpnI (NEB) digest and the PCR product transformed into E. coli NEB5-alpha. Once the presence of the desired mutation was confirmed by DNA sequencing, the plasmid was transformed into E. coli BL21(DE3). The three variants transformed into E. coli BL21(DE3) includes one with a mutation of H297N, a second with H297F, and a third of R305Q.
(§2) Protein was expressed in BL21(DE3) grown at 37° C./180 rpm in LB broth supplemented with 50 μg/ml ampicillin At mid-log phase cells were induced with 0.25 mM IPTG and grown overnight at 15° C./180 rpm and then harvested by centrifugation (4° C., 7000 g for 10 minutes). Cell pellets were resuspended in buffer A (200 mM KCl, 1 mM MnCl2, 50 mM Tris pH 7.5) supplemented with DNase, RNase, lysozyme (Sigma) and Complete EDTA-free protease inhibitor cocktail (Roche). Cells were lysed using a French press at 1500 psi and the lysate incubated at 50° C. for 30 minutes to precipitate host proteins. The lysate was clarified by centrifugation at 125,000 g for 90 minutes. […]

[4] = tested on: P. thermopropionicum HmfF R305Q variant; test: Reconstituted holo-PtHmfF decarboxylation assay (FIG. 7), R305Q variant; type: biochemical, Pelotomaculum thermopropionicum; conditions: 1 mM substrate
Procedure: as §1, §2

[5] = target: T1, P. thermopropionicum HmfF; test: HmfF carboxylation reactions assayed by HPLC; type: biochemical; conditions: 50 mM furoic acid, 3 M ammonium bicarbonate, 50° C. overnight
Procedure: (§3) […] The sample was centrifuged at 16100 g to remove precipitate and […] added to 980 μl 50% v/v H2O/acetonitrile. Sample analysis was performed using an Agilent 1260 Infinity Series HPLC equipped with a UV detector. The stationary phase was a Kinetex […] C18 100A column, 250×4.6 mm The mobile phase was acetonitrile/water (50/50) with 0.1% TFA at a flow rate of 1 ml/min, and unless otherwise stated detection was performed at a wavelength of 265 nm.

G. kaustophilus HmfF = test: HmfF carboxylation reactions assayed by HPLC; type: biochemical, Geobacillus kaustophilus; conditions: 50 mM furoic acid, 3 M ammonium bicarbonate, 50° C. overnight
Procedure: as §3

[6] = Effect of pH, temperature and oxygen on HmfF decarboxylation activity (UV-vis)

Molecule: O=C(O)c1cccc(C(=O)O)n1 [2,6-pyridinedicarboxylic acid]
- decarboxylation by purified P. thermopropionicum HmfF [1]: no decarboxylation detected

Molecule: O=C(O)c1ccc(C(=O)O)o1 [FDCA, 2,5-furandicarboxylic acid]
- observed kcat (decarboxylation activity) [2]: greater than 4 kcat/s
- decarboxylation activity [3]: did not exhibit any measurable decarboxylation activity
- decarboxylation activity [4]: did not exhibit any measurable decarboxylation activity
- decarboxylation by purified P. thermopropionicum HmfF [1]: capable of decarboxylating

Molecule: O=C(O)c1ccc(C(=O)O)[nH]1 [PDCA, 2,5-pyrrol-dicarboxylic acid]
- decarboxylation activity relative to the activity for FDCA [2]: about 2.5%
- observed kcat (decarboxylation activity) [2]: less than 0.1 kcat/s
- decarboxylation activity [3]: did not exhibit any measurable decarboxylation activity
- decarboxylation activity [4]: did not exhibit any measurable decarboxylation activity

Molecule: O=C(O)c1ccco1 [furoic acid]
- carboxylation of furoic acid to FDCA (HPLC peak) [5]: co-migrates with an FDCA standard
- carboxylation of furoic acid to FDCA (HPLC peak) (G. kaustophilus HmfF): co-migrates with an FDCA standard
- decarboxylation by purified P. thermopropionicum HmfF [1]: could not further decarboxylate

Molecule: O=C(O)c1ccc(C(=O)O)cc1 [terephthalic acid]
- decarboxylation by purified P. thermopropionicum HmfF [1]: no decarboxylation detected

B1: P. thermopropionicum HmfF: HmfF enzyme (2,5-furandicarboxylic acid decarboxylase) of SEQ ID NO:1 from the thermophilic bacterium Pelotomaculum thermopropionicum (protein, listed as Pelotomaculum thermopropionicum)
chain: MSHSLREWLAFLEGKGKLKRVRKEVDPVFEIAALGKQADGICSLLFERVKGYAVPVVTGLAGDRELFAAAMSVPVEGMLEKLAAAVENPVPCRLVSPDGAPVKECIIRENIDLLKMLPIPTHHAGDAGPYITAAILIARDPDSGVRNVSIHRLQVTGPDRLGILILPRHLWHFFGKAERAGRPLEIALAIGVHPAVLLASQATTRLGVDELEIASALLPQPLELVKCETVDVEVPAGAEIVIEGKILPGVREVEGPFGEYPRYYGPAAPRPVVEVTAVTHRRQPVYHTIIPASREHLLLGGIAREAVLLQTVRQAVPTVKNVHLTPGGSCRYHAVISIEKKHEGEAKNAIFAAFTSSSEVKHVVVVDHEINIFDPEEVEWAVATRCQAGRDVFIVKDAMGNRLDPSSRDGVSDKMGIDATIPLNLPGERFERISIPGLDKIKLADYLE
- activation energy ([6]; Arrhenius plot of the 25° C.-50° C. data points): 19.3 kcal/mol
- temperature maximum of enzyme activity ([6]; FDCA decarboxylation, anaerobic): ~60 °C

The next lines start with the values.

- decarboxylation by purified P. thermopropionicum HmfF [1]: no decarboxylation detected
Molecule: O=C(O)c1ccoc1C(=O)O [2,3-furandicarboxylic acid]

- decarboxylation by purified P. thermopropionicum HmfF [1]: no decarboxylation detected
Molecule: O=C(O)c1ccc(C(=O)O)s1 [2,5-thiophenedicarboxylic acid]

- decarboxylation by purified P. thermopropionicum HmfF [1]: no decarboxylation detected
Molecule: O=C(O)c1ccc(CO)o1 [5-hydroxymethyl-2-furoic acid]

- decarboxylation by purified P. thermopropionicum HmfF [1]: no decarboxylation detected
Molecule: O=C(O)c1ccc([N+](=O)[O-])o1 [5-nitro-2-furoic acid]

- decarboxylation by purified P. thermopropionicum HmfF [1]: no decarboxylation detected
Molecule: O=C(O)c1cccc(C(=O)O)c1 [isophthalic acid]

- decarboxylation by purified P. thermopropionicum HmfF [1]: no decarboxylation detected
Molecule: O=C(O)/C=C/C=C/C(=O)O [muconic acid]
